Experimental data published in paper PMC3608202 (Biochemistry, 2013).

Molecular target: Aβ(1–42) oligomers (Homo sapiens, UniProt P05067)
Assay: Short time oligomer dissociation assay
Assay type: biochemical
Conditions: 2h; 50 µM, 25 µM and 12.5 µM

Sequence of Aβ(1–42) oligomers (P05067 672-713): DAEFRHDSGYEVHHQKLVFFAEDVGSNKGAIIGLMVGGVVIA

Oligomer dissociation in short time assay: does result in disassembly
SMILES: O=C(O)c1cc(O)ccc1O [2,5-dihydroxybenzoic acid]
